Here are results for one compound from article PMC12520456, “Regulating Enzyme Activity via Microaggregates Mediated by Phase Separation” (Advanced Science, 2025).

Data set [1] is described as follows: Turbidity and CLSM phase separation of DPMD with trypsin/chymotrypsin. In kind it is physicochemical. From the text: Next, these intriguing microaggregates were further investigated using fluorescence recovery after photobleaching (FRAP) experiments. […] To directly visualize the liquid–solid phase separation process, we performed time‐lapse confocal microscopy on mixtures of DPMD and trypsin/chymotrypsin. Initially, numerous small, spherical DPMD‐rich microdroplets appeared upon enzyme addition and gradually grew into larger droplets within minutes (Figure S5A, Supporting Information). […] We next examined whether the enzyme–peptide aggregates remain stable under varying physiological conditions, such as changes in pH and enzyme concentration.
Figure S5. (A) The CLSM images of DPMD with enzyme and DPMD without enzyme under different time. (B) Turbidity measurements result illustrating the phase separation of DPMD -treated trypsin and chymotrypsin at different concentrations or pH shifts . % represents the mass fraction of the DPMD/trypsin/chymotrypsin . (C) The CLSM images of DPMD with enzyme, DPMD without enzyme and DPMD with enzyme and aprotinin. (D&E) The CLSM images of DPMD with enzyme and DPMD without enzyme under different pH (D) or enzyme concentrations […]
(§1) (1 picture or pasted object on this page, not shown here)
0.22μm filter to remove residue. The calcium content of the supernatant was measured using the Calcium ion detection kit (Beyotime) according to the recommended method. […]
Peptide and enzyme solutions were prepared at varying concentrations and mixed at a 1:1 volume ratio. Solution turbidity was quantitatively assessed by monitoring absorbance at 405 nm using a BioTek spectrophotometer. For fluorescence-based characterization, peptides were labeled with FITC while enzymes were labeled with Cy5. […] For fluorescence recovery after photobleaching (FRAP) analysis, enzyme-aggregated patches were selectively bleached at 60% laser power using 488/640 nm lasers for 10 s, followed by time-lapse imaging at 1-min intervals. […] Fluorescence intensity in the photobleached region was measured using ImageJ software , with values normalized to pre-bleach baselines. […]

A further data set has as its system NIH-3T3 or HUVEC. As to the kind of experiment: Annexin V/PI apoptosis assay by flow cytometry. In kind it is cell-based. As to conditions: 48 h; DPMD, also pre-incubated with trypsin or chymotrypsin; Figure S14B. The procedure:
and the product's absorbance at […] was dynamically and real-time monitored using a microplate […]
During the chymotrypsin activity assay, DPMD was incorporated into chymotrypsin. The final concentration of chymotrypsin was set at 10 μg/mL, and the final concentration of DPMD was 5 mg/mL. In the corresponding control group, an equal volume of the buffer solution prepared by the kit was added. Subsequently, the enzyme-peptide mixture was added to the reaction system containing the substrate N-Benzoyl-L-Tyrosine Ethyl Ester (BTEE) at a ratio of 1:100 (where the proportion of the enzyme-peptide mixture solution was 1) for the detection of enzyme activity. The reaction was carried out at 25 ℃, and the product's absorbance at 256 nm was dynamically and real-time monitored using a microplate reader. The experimental result was represented by the enzyme reaction's degree of completion. All the tests were repeated three independent times.
NIH-3T3 cells were obtained from the National Collection of Authenticated Cell Cultures. […] Cell viability was evaluated by the CCK-8 assay (Dojindo) at 1-, 3-, 5-, and 7-days post-treatment. […] The absorbance at 450 nm was recorded using a microplate reader […]
was performed using an Annexin V-Alexa Fluor 647/PI kit (Solarbio) according to the manufacturer’ s protocol. […] Samples were analyzed within 1h on a Sony MA900 flow cytometer.
3.12 Animal fluorescence imaging […]
(In general: In flow cytometry, cells or beads pass a laser one at a time.)

Data set [2] deals with trypsin and chymotrypsin in ascitic fluid. The data set is described as follows: Ex vivo ascitic fluid from lethal POPF model: aggregates, FRAP, enzyme activity. In kind it is biochemical, rat.
Excerpt: This ex vivo evidence confirms that DPMD mitigates POPF via an LSPS‐based mechanism: by assembling leaking pancreatic enzymes into non‐fusing microaggregates, DPMD effectively isolates and inactivates the enzymes, thereby preventing proteolytic damage to surrounding tissues.
Figure S13. (A) The evaluation of fluorescence polarization of DPMD with different volumes ascites. ( B) Representative time -lapse FRAP images howling the pre -bleach and recovery signals of DPMD -treated asciteschymotrypsin ex vitro. Circles indicate the bleached area. Scale bars, 10 μm and 1 μm (zoomed -in image). (C) Time-lapse images of DPMD-ascites mixture aggregates, illustrating the non-fusion of two aggregates. (D) The inhibition evaluation of enzymes in ascites bioactivity for trypsin and chymotrypsin by DPMD.
as §1

Non-standard residues stand in square brackets, D forms with d. Residues, ends and D or L forms follow the SMILES beside them.

Turning to `CC[C@@H](C)[C@@H](NC(=O)[C@@H](CCC(N)=O)NC(=O)[C@H](NC(=O)[C@@H](Cc1ccc(O)cc1)NC(=O)CNC(=O)[C@@H](CC(C)C)NC(=O)[C@H](NC(=O)[C@@H](CO)NC(=O)CNC(=O)[C@@H](C)NC(=O)[C@@H](CC(=O)O)NC(=O)[C@@H](C)NC(=O)[C@@H](CCCNC(=N)N)NC(=O)[C@@H](C)NC(=O)[C@@H](CC(=O)O)NC(=O)[C@@H](C)NC(=O)[C@@H](CCCNC(=N)N)NC(=O)[C@@H](C)NC(=O)[C@@H](CC(=O)O)NC(=O)[C@@H](C)NC(=O)[C@@H](CCCNC(=N)N)NC(=O)[C@@H](C)NC(=O)[C@@H](CC(=O)O)NC(=O)[C@@H](C)NC(=O)[C@H](N)CCCNC(=N)N)C(C)C)[C@H](C)CC)C(=O)N[C@H](CCCNC(=N)N)C(=O)O` [DPMD, Ac‐(D‐RADA)4‐CONH2] (H-[dR][dA][dD][dA][dR][dA][dD][dA][dR][dA][dD][dA][dR][dA][dD][dA]G[dS][dV][dL]G[dY][dI][dQ][dI][dR]-OH; N-terminus and C-terminus assumed), the “phase separation by turbidity” value in data set [1] (absorbance at 405 nm, DPMD and trypsin/chymotrypsin mixtures 1:1 volume, across a range of pH levels and enzyme concentrations, Figure S5B) was “robust phase separation”. For the same compound, the “phase separation with aprotinin-neutralized protease” value in data set [1] (enzyme pre-incubated with aprotinin, CLSM, Figure S5C) is reported as “no significant phase separation occurred”. Further, the “aggregate formation at shifted pH” value in data set [1] (pH 5.6 and pH 8.4, mixtures with trypsin/chymotrypsin, Figure S5D) is “still became cloudy and formed microscopically visible droplets/aggregates”. Moreover, in the data set with NIH-3T3 or HUVEC, the “apoptosis or necrosis (Annexin V/PI)” value is “no increase in apoptosis or necrosis”. The “fluorescence recovery after photobleaching of microaggregates in ascitic fluid” value in data set [2] (Figure S13B) is reported as “minimal fluorescence recovery after photobleaching”. In data set [2] (Figure S13D), the “proteolytic activity of trypsin and chymotrypsin in ascitic fluid” value was “markedly suppressed”.
